In patent publication US9592237B2, “Use of CB1 antagonists and/or inverse agonists for the preparation of drugs that increase motor neuron excitability” (Fundacion Del Hospital Nacional De Paraplejicos Para La …, priority 2009, dated 2017):

Key:
Male adult Wistar rats = test: Forced run on conveyer belt (fatigue), uninjured rats; type: in vivo, rat; details: 0.25 mg/Kg intraperitoneal; for effect on latency (Δ latency) in forced run: after injection, compared with carrier, result in words; for improvement in resistance to fatigue (decrease in latency) with respect to carrier: single injection, average
Procedure: (§1) Animals. Male adult Wistar rats were used (300-350 g; 12 weeks old), obtained from Harlan-Interfauna Ibérica (Barcelona, Spain) kept in our animal house in a light:dark cycle of 12:12 hours, receiving food and water ad libitum. The animals were handled in accordance with the guides published in the “NIH Guide for the Care and Use of Laboratory Animals”, the principles covered by the “Guidelines for the Use of Animals in Neuroscience Research” published by the American Neuroscience Society, and the European Union Guidelines (Directive 86/609/EEC). The rats were assigned to the groups with injection of carrier or the CB1 antagonists/inverse agonists (rimonabant (SR141716A) or AM281). Five uninjured animals and 3 injured animals were used for each group.
(§2) The rats were acclimatized to the conveyer belt making them walk on the belt at low speed. The forced run protocol consisted of a first session of 15 minutes run (20 m/min, 5% inclination) followed by a second session 2 hours later (Fatigue 2 h). The same protocol was repeated the following day to study the continuance of the effects observed with the treatment (Fatigue 24 h). In order to keep the rats running throughout the study, mild electric shock was used (20 mV, 1.67 Hz) and, possible, gentle touches by the experimenter's hand. The drugs were administered immediately after the first session of the first day. The treatments consisted of a single intraperitoneal injection of SR141716A (0.25 mg/Kg), or AM281 (0.25 mg/Kg), or carrier (2.5% Bovine Serum Albumin, SIGMA, Spain, in 0.9% NaCl).
Latency was defined as the number of seconds during the experiment where the animals touched the grille located at the end of the conveyer belt. The animals that remained more than twice at the electric grille receiving discharges of over 10 seconds were considered exhausted and were returned to their cages. In this case, latency time was also considered the remaining time until the end of the protocol. The latency increase (αlatency) was calculated as the difference between the action of the rat at each time minus the values of the first session. Therefore, the negative measurements reflect a decrease in latency, and, therefore, an improvement in motor capacity.

healthy volunteers [1] = test: Active motor threshold by transcranial electric stimulation (TES); type: in vivo, human; details: % of maximum stimulator output; 24 hours after single dose of 20 mg; six subjects; baseline 19.6±6%; P=0.0164; ±SD
Procedure: (§3) The objective of the present experiments was to use transcranial magnetic and electric stimulation to test the effects of a single dose of 20 mg of rimonabant in motor cortex and spinal motor neuron excitability.
(§4) A neurophysiological examination was carried out before and 24 hours after administration of a single dose of 20 mg of rimonabant.
(§5) Using transcranial magnetic stimulation (TMS) we evaluate the electromyographic response thresholds in the first dorsal interosseous (FDI) at rest and during voluntary contraction. Using transcranial electric stimulation (TES) we evaluate the electromyographic response thresholds in the first dorsal interosseous during voluntary contraction. Transcranial electric stimulation tends to activate the axons of the corticospinal neurons in the white matter whilst magnetic stimulation activates the same fibres trans-synaptically (Hallett, 2000 Jul. 13, 406 (6792):147-50). Therefore, the response evoked electrically are not as sensitive to changes in cortical excitability as those evoked by magnetic stimulation. We also evaluate short-latency intracortical facilitation (ICF). ICF was studied using the technique of Kujirai et al. (J Physiol. 1993 Nov; 471:501-19).
In six subjects we also performed electric stimulation of the motor cortex during voluntary contraction. This was performed with a Digitimer D180A digital stimulator with a time constant of 50 μs. […]

healthy volunteers [2] = test: Motor thresholds by transcranial magnetic stimulation (TMS), first dorsal interosseous; type: in vivo, human; details: % of maximum stimulator output, 24 hours after single dose of 20 mg, ±SD
Procedure: as §3, §4
as §5, with “471:501-19). […]” for “471:501-19).”

healthy volunteers [3] = test: Intracortical facilitation (ICF), paired-pulse TMS; type: in vivo, human; details: % of response to test stimulus without conditioning stimulus; 24 hours after single dose of 20 mg; baseline 117±21%; P=0.0212; ±SD
Procedure: as §4
as §5, with “471:501-19). […]” for “471:501-19).”
The response facilitation conditional upon the three different ISIs studied was then averaged to give a magnified average value. The amplitude of the motor evoked potentials was expressed as percentages of amplitude of the motor evoked potentials of the tests. […]

healthy volunteers [4] = test: Adverse effects observed in subjects of the stimulation study; type: in vivo, human; details: single dose of 20 mg
Procedure: as §4
Nine healthy volunteers (average age±S.D 32.1±5.8 years) participated in the experiments using TMS (transcranial magnetic stimulation) and six participated in the experiments with electric stimulation. All subjects gave their informed written consent. The study was developed in accordance with the Declaration of Helsinki and approved by the Local Ethics Committee. The magnetic stimulation was developed using two Magstim 200 high-power magnetic stimulators (Magstim Co., Whitland, UK) connected to the Bistim Module during all measurements. A figure of 8 shaped coil was placed with an external diameter of 9 cm on the right motor cortex, in optimal position of the head to provoke a motor response in the contralateral first dorsal interosseous. The current induced a flow in the posteroanterior direction. The rest motor threshold (RMT) was defined as the stimulus of minimum intensity capable of producing a motor evoked response at rest (of around 50 μV in 50% of the 10 attempts). The active motor threshold (AMTtms) was defined as the stimulus of minimum intensity capable of producing a motor evoked response (around 200 μV in 50% of the 10 attempts) during the isometric contraction of the muscle tested at approximately 20% of the maximum. A constant voluntary contraction level was maintained by electromyogram display oscilloscope placed in front of the subject.
In six subjects we also performed electric stimulation of the motor cortex during voluntary contraction. This was performed with a Digitimer D180A digital stimulator with a time constant of 50 μs. The cathode was placed in the vertex and the anode at 7 cm laterally (anodic stimulation). We evaluate the active electric motor threshold (AMTtes) defined as the stimulus of minimum intensity capable of producing a motor evoked response of around 200 μV in 50% of ten attempts during the voluntary contraction.

[5] = system: rats with moderate spinal cord lesion; test: Modified forced run on conveyer belt, rats with moderate spinal cord lesion; type: in vivo, rat; details: 0.25 mg/Kg intraperitoneal; for improvement in resistance to fatigue (decrease in latency) with respect to carrier: 7 days after lesion, average
Procedure: as §1
as §2, with “The treatments consisted of a single intraperitoneal injection of SR141716A (0.25 mg/Kg), or AM281 (0.25 mg/Kg), or carrier (2.5% Bovine Serum Albumin, SIGMA, Spain, in 0.9% NaCl).” left out
Latency was defined as the number of seconds during the experiment where the animals touched the grille located at the end of the conveyer belt. […] The latency increase (αlatency) was calculated as the difference between the action of the rat at each time minus the values of the first session. […]
6 animals were subjected to a moderate spinal cord lesion by, using the “Infinite Horizon” motorized system (Precision Systems & Instrumentation, [PSI], Lexington, Ky.). […] The hydration state was monitored as was the presence of possible infections in the animals until the end of the experiment. […]

Row | Structure (SMILES) | effect on latency (Δ latency) in forced run (Male adult Wistar rats) | improvement in resistance to fatigue (decrease in latency) with respect to carrier (Male adult Wistar rats; 2 hours after fatigue) [s] | improvement in resistance to fatigue (decrease in latency) with respect to carrier (Male adult Wistar rats; 24 hours after fatigue) [s] | active motor threshold using transcranial electric stimulation (AMTtes), mean (healthy volunteers [1]) [%] | active motor threshold using transcranial magnetic stimulation (AMTtms), mean (healthy volunteers [2]; baseline 39±4%, P=0.0008) [%] | resting motor threshold using transcranial magnetic stimulation (RMT), mean (healthy volunteers [2]; baseline 48±6%, P=0.0775 (not significant)) [%] | intracortical facilitation (ICF), mean (healthy volunteers [3]) [%] | duration of agitation and anxiety, average (healthy volunteers [4]; affected subjects) [h] | effects on attention (healthy volunteers [4]; healthy volunteers) | subjects with agitation and anxiety (healthy volunteers [4]; nine healthy volunteers) | subjects with nauseas (healthy volunteers [4]; nine healthy volunteers, during 24 h) | effect on latency (Δ latency) in forced run ([5]; 2 hours after injection compared with carriers, result in words) | improvement in resistance to fatigue (decrease in latency) with respect to carrier ([5]; 2 hours after fatigue) [s] | improvement in resistance to fatigue (decrease in latency) with respect to carrier ([5]; 24 hours after fatigue) [s]
1 | Cc1c(C(=O)NN2CCOCC2)nn(-c2ccc(Cl)cc2Cl)c1-c1ccc(I)cc1 [AM281] | decreased latency | 185 | 207 | – | – | – | – | – | – | – | – | – | – | –
2 | Cc1c(C(=O)NN2CCCCC2)nn(-c2ccc(Cl)cc2Cl)c1-c1ccc(Cl)cc1 [rimonabant, N-(piperidin-1-yl)-5-(4-chlorophenyl)-1-(2,4-dichlorophenyl)-4-methyl-1H-pyrazole-3-carboxamide] | decreased latency | 75 | 125 | 17.5±6 | 35.5±4 | 46.5±6 | 150±40 | 6 | moderate | Three of the subjects experienced agitation and anxiety | one suffered nauseas | decreased latency | 136 | 200
